Structures can show the parent of a compound that is named as a salt.
Columns and labels:
[1] = test system: HCT116; test: viability inhibition vs untreated; higher = more cytotoxic; settings: 72 h
[2] = test system: HCT116; settings: 72 h
Description: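 HCT116 control and MTA1-KO (CRISPR) HCT116 cells were seeded in 384-well plates (800 cells/well), treated 16 h later with 237 metabolism-related anticancer drugs at five doses (10 uM, 2 uM, 400 nM, 80 nM, 16 nM) for 72 h, two replicates; viability by CCK8. Values are % inhibition of viability relative to untreated cells, plus fitted IC50.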

Compound	viability inhibition ([1]; genotype: MTA1-KO, 16 nM)	viability inhibition ([1]; genotype: MTA1-KO, 80 nM)	viability inhibition ([1]; genotype: MTA1-KO, 400 nM)	viability inhibition ([1]; genotype: MTA1-KO, 2000 nM)	viability inhibition ([1]; genotype: MTA1-KO, 10000 nM)	viability inhibition ([1]; genotype: control, 16 nM)	viability inhibition ([1]; genotype: control, 80 nM)	viability inhibition ([1]; genotype: control, 400 nM)	viability inhibition ([1]; genotype: control, 2000 nM)	viability inhibition ([1]; genotype: control, 10000 nM)	IC50 ([2]; genotype: MTA1-KO)	IC50 ([2]; genotype: control)
N#CNC(=NCCCCCCOc1ccc(Cl)cc1)Nc1ccncc1 [CHS 828]	-0.922%	-1.84%	18.8%	41.1%	49%	-11.1%	18.5%	30.7%	59.8%	79.4%	0.535 µM	1.85 µM
S=C(N/N=C1/CCCc2cccnc21)N1CCN(c2ccccn2)CC1 [COTI2]	5.92%	0.177%	50.3%	49.7%	67.4%	8.87%	-13.6%	-3.5%	87.4%	88.4%	0.246 µM	1.07 µM
O=C(O)CCCCC(CCSCc1ccccc1)SCc1ccccc1 (configuration not stated) [CPI613]	-15.7%	-15.1%	-22.2%	-25.4%	-7.62%	7.59%	-3.09%	-6.23%	-6.02%	8.56%	> 10 µM	> 10 µM
CCNC(=O)Nc1ccc(-c2nc(N3CCOC[C@@H]3C)c3c(n2)C(C)(C)S(=O)(=O)C3)cc1 [CZ415]	-6.27%	-12.8%	23.6%	61.9%	75.6%	-5.97%	12.9%	20.8%	61.7%	60.1%	0.501 µM	0.552 µM
CC(C)c1ccc(C(=O)N=C(N)N)cc1S(C)(=O)=O [Cariporide]	-28.1%	-33.2%	-32%	-35.2%	-20.9%	19.4%	-4.81%	-9.25%	-4.56%	22.7%	> 10 µM	> 10 µM
CC1(C)CC[C@]2(C(=O)O[C@@H]3O[C@H](CO)[C@@H](O)[C@H](O)[C@H]3O)CC[C@]3(C)C(=CC[C@@H]4[C@@]5(C)CC[C@H](O[C@@H]6O[C@H](C(=O)O)[C@@H](O)[C@H](O)[C@H]6O)C(C)(C)[C@@H]5CC[C@]43C)[C@@H]2C1 [Chikusetsusaponin IVa]	-3.21%	-3.77%	-2.17%	-0.406%	19.3%	-1.39%	-7.09%	-12.1%	-11.2%	3.05%	> 10 µM	> 10 µM
NS(=O)(=O)c1cc2c(cc1Cl)NC=NS2(=O)=O [Chlorothiazide]	-10.2%	-0.674%	-4.5%	-3.61%	-8.39%	3.92%	0.542%	0.606%	-0.861%	5.64%	> 10 µM	> 10 µM
Cc1cc(C2CCCCC2)n(O)c(=O)c1 [Ciclopirox ethanolamine]	-18%	-22.5%	-14.4%	-5.78%	54.5%	-10.2%	5.38%	5.2%	46.4%	91.6%	7.38 µM	1.88 µM
Cc1cc(C2CCCCC2)n(O)c(=O)c1 [Ciclopirox]	-13.6%	8.1%	-8.33%	25.7%	64.7%	9.52%	6.31%	24%	77%	113%	4.96 µM	1.02 µM
CC(=O)O[C@H]1[C@H]2O[C@]23[C@@H]2CC[C@@H]4C[C@@H](O)CC[C@]4(C)[C@H]2CC[C@]3(C)[C@H]1c1ccc(=O)oc1 [Cinobufagin]	51.8%	51.6%	84.4%	88.9%	92.1%	19.9%	58.1%	96.5%	96.5%	94.8%	< 0.016 µM	0.0795 µM
CCC(C)(Oc1ccc(C2(c3ccc(OC(C)(CC)C(=O)O)cc3)CCCCC2)cc1)C(=O)O (configuration not stated) [Clinofibrate]	12.9%	5.15%	19.9%	28%	51.7%	-13.2%	-10%	-7.17%	-15.8%	0.951%	> 10 µM	> 10 µM
Nc1nc(Cl)nc2c1ncn2[C@@H]1O[C@H](CO)[C@@H](O)[C@@H]1F [Clofarabine]	-2.4%	4.43%	55.5%	80.4%	75.8%	-9.53%	-5%	88.4%	88.9%	92.8%	0.257 µM	0.141 µM
Clc1ccccc1C(c1ccccc1)(c1ccccc1)n1ccnc1 [Clotrimazole]	-16.8%	-16.8%	-15%	-23.3%	-4.67%	0.201%	-0.602%	-4.37%	-8.31%	2.92%	> 10 µM	> 10 µM
CC(=O)OC(C)(C)/C=C/C(=O)[C@](C)(O)[C@H]1[C@H](O)C[C@@]2(C)[C@@H]3CC=C4[C@@H](C[C@H](O)C(=O)C4(C)C)[C@]3(C)C(=O)C[C@]12C [Cucurbitacin B]	-3.8%	-16.3%	58.7%	66.6%	79.9%	-19.7%	-9.21%	33.3%	49.7%	58.9%	0.34 µM	4.56 µM
COc1cc(/C=C/C(=O)CC(=O)/C=C/c2ccc(O)c(OC)c2)ccc1O [Curcumin]	-19.2%	-16.2%	-19.6%	-14.2%	61.7%	-1.96%	7.36%	-4.61%	4.83%	60.8%	7.8 µM	7.85 µM
Nc1cccc(S(=O)(=O)N2CCCN(S(=O)(=O)c3ccc4c(c3)OCCO4)CC2)c1 [DASA58]	-0.728%	-19.4%	-15.8%	-12.1%	75%	-13.2%	-25.9%	-13.7%	-17.4%	-6.72%	6.95 µM	> 10 µM
Cc1ccc(NC(=O)Nc2cc(-c3ccccc3-c3nn[nH]n3)ccc2N(CC(C)C)CC(C)C)cc1 [DO-IN-2]	-2.66%	13.6%	7.91%	10.9%	-6.41%	4.06%	0.568%	-3.13%	-1.86%	41.6%	> 10 µM	> 10 µM
COc1ccc(Cc2cnc(N)nc2N)cc1OC [Diaveridine]	9.72%	-12.4%	-14.2%	-12.8%	8.55%	7.02%	-9.3%	-5.19%	-12.6%	10.2%	> 10 µM	> 10 µM

Compound	viability inhibition ([1]; genotype: MTA1-KO, 16 nM)	viability inhibition ([1]; genotype: MTA1-KO, 80 nM)	viability inhibition ([1]; genotype: MTA1-KO, 400 nM)	viability inhibition ([1]; genotype: MTA1-KO, 2000 nM)	viability inhibition ([1]; genotype: MTA1-KO, 10000 nM)	viability inhibition ([1]; genotype: control, 16 nM)	viability inhibition ([1]; genotype: control, 80 nM)	viability inhibition ([1]; genotype: control, 400 nM)	viability inhibition ([1]; genotype: control, 2000 nM)	viability inhibition ([1]; genotype: control, 10000 nM)	IC50 ([2]; genotype: MTA1-KO)	IC50 ([2]; genotype: control)
CC1=NS(=O)(=O)c2cc(Cl)ccc2N1 [Diazoxide]	7.55%	5.32%	16.2%	16%	35.1%	3.13%	23.2%	0.951%	4.98%	3.64%	> 10 µM	> 10 µM
NS(=O)(=O)c1cc(Cl)c(Cl)c(S(N)(=O)=O)c1 [Dichlorphenamide]	6.61%	-0.189%	-0.404%	-3.85%	16.5%	-20.7%	-6.03%	-16.5%	-12.6%	-18.3%	> 10 µM	> 10 µM
O=c1oc2ccccc2c(O)c1Cc1c(O)c2ccccc2oc1=O [Dicumarol]	4.75%	8.83%	21.4%	67.8%	64.3%	10.4%	23.6%	22.5%	66.6%	65.9%	0.444 µM	0.54 µM
CCN(CC)C(=S)SSC(=S)N(CC)CC [Disulfiram]	-26.6%	-25.2%	-25.3%	-20.1%	-18.3%	-6.96%	-11.2%	-6.9%	-8.44%	-2.88%	> 10 µM	> 10 µM
c1cc(-c2cnn3cc(-c4ccc(OCCN5CCCCC5)cc4)cnc23)ccn1 [Dorsomorphin dihydrochloride]	-1.27%	-9.68%	3.35%	4.71%	43.6%	-2.17%	-2.84%	-1.4%	7.12%	55.1%	> 10 µM	8.54 µM
c1cc(-c2cnn3cc(-c4ccc(OCCN5CCCCC5)cc4)cnc23)ccn1 [Dorsomorphin]	1.25%	-13.4%	-12.4%	-11.7%	-1.25%	19.5%	29.9%	18.4%	20.9%	19.6%	> 10 µM	> 10 µM
CCN[C@H]1C[C@H](C)S(=O)(=O)c2sc(S(N)(=O)=O)cc21 [Dorzolamide hydrochloride]	-14.8%	-12.5%	-7.44%	-8.97%	-17.4%	-5.26%	-2.58%	-9.91%	-10%	-10.3%	> 10 µM	> 10 µM
CC(C)(CCCCCC(O)CCCCCC(C)(C)C(=O)O)C(=O)O [ETC1002]	2.14%	-10.3%	-6.64%	-17.1%	-9.91%	10.7%	-0.834%	-5.92%	-6.48%	-5.51%	> 10 µM	> 10 µM
NCCCC(N)(C(=O)O)C(F)F (configuration not stated) [Eflornithine hydrochloride Monohydrate]	-16.1%	-27.6%	-24%	-21.9%	-20.4%	11.3%	1.76%	-3.16%	0.852%	61.6%	> 10 µM	9.47 µM
O=c1oc2c(O)c(O)cc3c(=O)oc4c(O)c(O)cc1c4c23 [Ellagic acid]	-9.03%	-12.1%	-9.22%	-2.14%	-6.22%	-17.2%	-19%	-17.4%	-13.6%	-11.3%	> 10 µM	> 10 µM
CC(C)(O)CNc1nc(Nc2ccnc(C(F)(F)F)c2)nc(-c2cccc(C(F)(F)F)n2)n1 [Enasidenib]	-26%	-20.5%	-17.3%	-19.3%	-24.8%	-12.3%	-12.7%	-4.75%	-20.9%	-15.6%	> 10 µM	> 10 µM
Cc1cc(-n2cccc2)c(S(C)(=O)=O)cc1C(=O)N=C(N)N [Eniporide]	-5.44%	3.61%	2.87%	16.5%	60.9%	1.06%	-2.91%	-4.47%	3.58%	8.84%	6.22 µM	> 10 µM
NS(=O)(=O)NCCNc1nonc1C(=Nc1ccc(F)c(Br)c1)NO [Epacadostat]	17.9%	-8.61%	-7.79%	-6.79%	6.59%	-9.21%	-6.3%	-14.3%	-5.67%	-5.46%	> 10 µM	> 10 µM
COc1ccc2[nH]c([S@@+]([O-])Cc3ncc(C)c(OC)c3C)nc2c1 [Esomeprazole Magnesium]	2.7%	2.87%	3.11%	1.54%	3.86%	16.3%	11.1%	18%	11.9%	21.2%	> 10 µM	> 10 µM
COc1ccc2[nH]c([S@@+]([O-])Cc3ncc(C)c(OC)c3C)nc2c1 [Esomeprazole Sodium]	3.92%	2.7%	7.98%	6.88%	10.1%	27%	8.16%	-3.32%	4.21%	12%	> 10 µM	> 10 µM
CO[C@H]1C[C@@H]2CC[C@@H](C)[C@@](O)(O2)C(=O)C(=O)N2CCCC[C@H]2C(=O)O[C@H]([C@H](C)C[C@@H]2CC[C@@H](OCCO)[C@H](OC)C2)CC(=O)[C@H](C)/C=C(\C)[C@@H](O)[C@@H](OC)C(=O)[C@H](C)C[C@H](C)/C=C/C=C/C=C/1C [Everolimus]	-19%	-24.2%	-24.2%	-22.2%	-6.06%	5.54%	0.73%	1.76%	3.41%	25.7%	> 10 µM	> 10 µM
O=C1[C@H](CC[C@H](O)c2ccc(F)cc2)[C@@H](c2ccc(O)cc2)N1c1ccc(F)cc1 [Ezetimibe]	-4.11%	3.58%	10.6%	5.65%	0.125%	-7.56%	2.58%	22%	25.8%	31.9%	> 10 µM	> 10 µM
N#CC(C#N)=NNc1ccc(OC(F)(F)F)cc1 [FCCP]	-7.63%	1.48%	-17.8%	-8.82%	87.2%	-7.79%	-5.69%	-13.2%	-7.17%	67%	8.13 µM	9.04 µM
